According to US8497286B2, “Organic compounds” (Novartis AG, priority 2007, dated 2013):

target: recombinant human renin (Homo sapiens (Human), UniProt P00797); assay: Renin inhibitory activity in vitro, FRET assay (item 2); format: biochemical; conditions: recombinant human renin 0.5 nM, 2 h at 37° C., pH 7.4, peptide substrate 4 μM
Procedure: Inter alia the following in vitro tests may be used: • 1) Recombinant human renin (expressed in Chinese Hamster Ovary cells and purified using standard methods) at 7.5 nM concentration is incubated with test compound at various concentrations for 1 h at RT in 0.1 M Tris-HCl buffer, pH 7.4, containing 0.05 M NaCl, 0.5 mM EDTA and 0.05% CHAPS. Synthetic peptide substrate […] is added to a final concentration of 2 μM and increase in fluorescence is recorded at an excitation wave-length of 350 nm and at an emission wave-length of 500 nm in a microplate spectro-fluorimeter. IC50 values are calculated from percentage of inhibition of renin activity as a function of test compound concentration (Fluorescence Resonance Energy Transfer, FRET, assay). […] Synthetic peptide substrate […] is added to a final concentration of 4 μM and increase in fluorescence is recorded at an excitation wave-length of 340 nm and at an emission wave-length of 485 nm in a microplate spectro-fluorimeter. IC50 values are calculated from percentage of inhibition of renin activity as a function of test compound concentration (Fluorescence Resonance Energy Transfer, FRET, assay). […] The enzyme reaction is stopped by adding an excess of a blocking inhibitor. The product of the reaction is separated by capillary electrophoresis and quantified by spectrophotometric measurement at […] wave-length. IC50 values are calculated from percentage of inhibition of renin activity as a function of test compound concentration. […] The enzyme reaction is stopped by adding an excess of a blocking inhibitor. The product of the reaction is separated by capillary electrophoresis and quantified by spectrophotometric measurement at […] wave-length. IC50 values are calculated from percentage of inhibition of renin activity as a function of test compound concentration. […] Renin inhibitory activity was assessed in vitro by the method as outlined above in item 2).

Sequence of recombinant human renin (P00797 67-406): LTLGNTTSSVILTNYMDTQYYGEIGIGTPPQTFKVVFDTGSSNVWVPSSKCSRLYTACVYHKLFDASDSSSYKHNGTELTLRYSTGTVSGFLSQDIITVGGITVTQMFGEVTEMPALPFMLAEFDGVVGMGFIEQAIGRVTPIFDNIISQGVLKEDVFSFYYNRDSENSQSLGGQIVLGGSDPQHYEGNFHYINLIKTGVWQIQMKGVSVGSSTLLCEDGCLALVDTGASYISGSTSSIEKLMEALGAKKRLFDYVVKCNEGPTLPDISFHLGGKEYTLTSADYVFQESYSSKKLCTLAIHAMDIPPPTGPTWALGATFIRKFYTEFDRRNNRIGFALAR

| IC50 | Structure (SMILES) |
| --- | --- |
| 0.9 nM | CCOC[C@@H](CC(C)C)NC(=O)[C@@H]1CNC[C@H](C(=O)N(c2ccc(C(C)C)cn2)C2CC2)C1 [Example 1] |
| 3 nM | CCOC[C@@H](NC(=O)[C@@H]1CNC[C@H](C(=O)N(c2ccc(C(C)C)cn2)C2CC2)C1)C1CCCCC1 [Example 2] |
| 0.6 nM | CCOC[C@@H](CC(C)C)NC(=O)[C@@H]1CNC[C@H](C(=O)N(CC(C)C)c2cc(OCCCOC)c(C(C)C)cn2)C1 [Example 3] |
| 0.8 nM | CCOC[C@@H](CC(C)C)NC(=O)[C@@H]1CNC[C@H](C(=O)N(c2cc(OC)c(C(C)C)cn2)C2CC2)[C@@H]1O [Example 13] |
| 0.3 nM | CCOC[C@@H](CC(C)C)NC(=O)[C@@H]1CNC[C@H](C(=O)N(c2cc(OCC)c(CC)cn2)C2CC2)[C@@H]1O [Example 14] |
| 6 nM | CCOC[C@@H](CC(C)C)NC(=O)[C@@H]1CNC[C@H](C(=O)N(CC(C)C)c2cc(OCCCO)c(C(C)C)cn2)[C@@H]1O [Example 15] |
| 2.5 nM | CCOC[C@H](NC(=O)[C@@H]1CNC[C@H](C(=O)N(c2ccc(C(C)C)cn2)C2CC2)[C@@H]1O)C(C)C [Example 16] |
| 9 nM | COC[C@H]1CC[C@H](NC(=O)[C@@H]2CNC[C@H](C(=O)N(c3cc(OC)c(C(C)C)cn3)C3CC3)[C@@H]2O)CC1 [Example 17] |
| 0.6 nM | CCOC[C@H](NC(=O)[C@@H]1CNC[C@H](C(=O)N(c2cc(OCC)c(CC)cn2)C2CC2)[C@@H]1O)C(C)C [Example 18] |
